Data taken from PMC7640924 (Bioorganic & Medicinal Chemistry Letters, 2020).

system: not listed separately; test: Microsomal stability; format: in vitro ADME; conditions: human

Row | SMILES | microsomal stability (in words)
1 | O=C(CN1C(C(=O)c2ccc(F)c(Cl)c2)=C(O)c2ccc(F)cc2S1(=O)=O)Nc1ccc(C(F)(F)F)cc1 [Compound 13c, 2-(3-(3-Chloro-4-fluorobenzoyl)-7-fluoro-4-hydroxy-1,1-dioxido-2H-benzo[e][1,2]thiazin-2-yl)-N-(4-(trifluoromethyl)phenyl)acetamide] | good microsomal stability

system: SARS-CoV-2; test: Anti-SARS-CoV-2 activity, cellular phenotypic screening; format: cell-based; conditions: Vero cells

Row | SMILES | anti-SARS-CoV-2 activity (in words)
2 | O=C(CN1C(C(=O)c2ccc(F)cc2)=C(O)c2ccccc2S1(=O)=O)Nc1ccccc1 [Compound 4a, 2-(3-(4-fluorobenzoyl)-4-hydroxy-1,1-dioxido-2H-benzo[e][1,2]thiazin-2-yl)-N-phenylacetamide] | no inhibitory effect
3 | O=C(CN1C(C(=O)c2ccc(F)cc2)=C(O)c2ccccc2S1(=O)=O)Nc1ccccc1Cl [Compound 4b, N-(2-Chlorophenyl)-2-(3-(4-fluorobenzoyl)-4-hydroxy-1,1-dioxido-2H-benzo[e][1,2]thiazin-2-yl)acetamide] | no inhibitory effect
4 | CCNC(=O)CN1C(C(=O)c2ccccc2)=C(O)c2ccccc2S1(=O)=O [Compound 4f, 2-(3-Benzoyl-4-hydroxy-1,1-dioxido-2H-benzo[e][1,2]thiazin-2-yl)-N-ethylacetamide] | detrimental for anti-SARS-CoV-2 activities
5 | O=C(C1=C(O)c2ccccc2S(=O)(=O)N1Cc1ccccc1)c1ccccc1 [Compound 5a, (2-Benzyl-4-hydroxy-1,1-dioxido-2H-benzo[e][1,2]thiazin-3-yl)(phenyl)methanone] | no anti-SARS-CoV-2 activities
6 | N#Cc1cccc(C(=O)C2=C(O)c3ccccc3S(=O)(=O)N2CC(=O)c2ccc(F)c(Cl)c2)c1 [Compound 5b, 3-(2-(2-(3-Chloro-4-fluorophenyl)-2-oxoethyl)-4-hydroxy-1,1-dioxido-2H-benzo[e][1,2]thiazine-3-carbonyl)benzonitrile] | no anti-SARS-CoV-2 activities
7 | N#Cc1ccc(C(=O)C2=C(O)c3ccccc3S(=O)(=O)N2CC(=O)c2ccc(F)c(Cl)c2)cc1 [Compound 5c, 4-(2-(2-(3-Chloro-4-fluorophenyl)-2-oxoethyl)-4-hydroxy-1,1-dioxido-2H-benzo[e][1,2]thiazine-3-carbonyl)benzonitrile] | no anti-SARS-CoV-2 activities
8 | O=C(O)/C=C/N1C(C(=O)c2ccc(F)c(Cl)c2)=C(O)c2ccccc2S1(=O)=O [Compound 7, (E)-3-(3-(3-Chloro-4-fluorobenzoyl)-4-hydroxy-1,1-dioxido-2H-benzo[e][1,2]thiazin-2-yl)acrylic acid] | no antiviral effect

target: hERG (Homo sapiens, UniProt Q12809); test: hERG inhibition; format: binding; conditions: not given
Sequence (Q12809 whole entry): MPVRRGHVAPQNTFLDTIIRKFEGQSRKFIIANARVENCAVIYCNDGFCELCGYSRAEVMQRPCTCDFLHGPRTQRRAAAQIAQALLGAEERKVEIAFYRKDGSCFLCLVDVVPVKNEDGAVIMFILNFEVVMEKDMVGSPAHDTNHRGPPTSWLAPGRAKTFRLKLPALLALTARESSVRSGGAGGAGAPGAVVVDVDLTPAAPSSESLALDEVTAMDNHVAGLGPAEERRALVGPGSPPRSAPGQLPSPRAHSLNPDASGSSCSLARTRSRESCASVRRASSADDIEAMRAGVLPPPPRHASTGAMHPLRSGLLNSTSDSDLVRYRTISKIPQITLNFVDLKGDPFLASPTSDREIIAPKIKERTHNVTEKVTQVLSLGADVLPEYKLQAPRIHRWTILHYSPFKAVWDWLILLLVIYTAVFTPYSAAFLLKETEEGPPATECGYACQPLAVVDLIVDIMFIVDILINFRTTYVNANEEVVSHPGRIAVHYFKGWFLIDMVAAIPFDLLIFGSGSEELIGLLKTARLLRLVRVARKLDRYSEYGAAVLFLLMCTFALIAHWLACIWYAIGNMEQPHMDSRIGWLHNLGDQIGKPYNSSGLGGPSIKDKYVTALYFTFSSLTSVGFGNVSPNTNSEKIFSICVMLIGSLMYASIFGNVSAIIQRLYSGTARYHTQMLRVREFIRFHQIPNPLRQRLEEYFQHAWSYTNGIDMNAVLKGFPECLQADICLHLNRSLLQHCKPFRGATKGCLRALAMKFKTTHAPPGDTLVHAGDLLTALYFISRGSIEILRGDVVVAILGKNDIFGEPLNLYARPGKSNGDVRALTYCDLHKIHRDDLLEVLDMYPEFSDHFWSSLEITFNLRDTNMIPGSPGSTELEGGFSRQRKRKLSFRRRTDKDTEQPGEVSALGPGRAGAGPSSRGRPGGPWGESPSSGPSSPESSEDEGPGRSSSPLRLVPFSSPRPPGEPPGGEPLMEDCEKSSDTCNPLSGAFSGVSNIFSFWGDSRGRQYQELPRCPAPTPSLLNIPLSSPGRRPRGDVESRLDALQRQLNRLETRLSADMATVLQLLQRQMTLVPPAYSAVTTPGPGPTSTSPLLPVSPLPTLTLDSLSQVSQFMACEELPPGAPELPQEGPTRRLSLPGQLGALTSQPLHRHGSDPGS

Row | SMILES | hERG binding (in words)
9 | O=C(CN1C(C(=O)c2ccc(F)c(Cl)c2)=C(O)c2ccc(F)cc2S1(=O)=O)Nc1ccc(C(F)(F)F)cc1 [Compound 13c, 2-(3-(3-Chloro-4-fluorobenzoyl)-7-fluoro-4-hydroxy-1,1-dioxido-2H-benzo[e][1,2]thiazin-2-yl)-N-(4-(trifluoromethyl)phenyl)acetamide] | low binding with hERG
